Experiment [1] deals with Son of sevenless homolog 1/GTPase KRas [G12C] (Homo sapiens, UniProt P01116, G12C). Kind of experiment: HTRF KRASG12C/SOS1 Binding Assay. How it is done: The HTRF KRASG12C/SOS1 Binding Assay was used to measure the interaction between KRASG12C and SOS1 proteins, and evaluate the enzymatic activity of compounds against KRASG12C. The utilized proteins and assay reagents were obtained from the KRASG12C-SOS1 binding assay kits (Cisbio). Initially, a 2 mM stock solution of the test compound (dissolved in DMSO) was serially diluted in five-fold concentrations using DMSO to obtain eight working solutions 1 (200×). Subsequently, each of the eight working solutions 1 was further diluted in a 20-fold gradient by adding 5 μL into 95 μL of Diluent buffer, mixed completely with vortex mixer, resulting in eight working solutions 2 (10×). In a 384-well white flat-bottom plate, 4 μL of Tag2-KRASG12C solution, 2 μL of working solution 2 (10×) and 4 μL of Tag1-SOS1 solution were sequentially added to each well and mixed, followed by a 15-minute incubation at room temperature (RT). Subsequently, 5 μL of Anti-tag 1-Tb3+ stock solution and 5 μL of Anti-tag2-XL665 were added to each well, mixed, and incubated at 4° C. for 3 hours. […] The inhibition rate was calculated using the following formula:%Inhibitionrate= [(Rationegative-Ratiocompound)/(Rationegative-RatioBlank)]×100Data were analyzed using GraphPad Prism with log (inhibitor) vs. response-Variable Slope (four parameters) fitting calculations for IC50 values.
A general note: TR-FRET usually uses a lanthanide donor and a delayed reading to cut background.

In experiment [2] the target is Phosphatidylinositol 4,5-bisphosphate 3-kinase catalytic subunit alpha isoform (Homo sapiens, UniProt P42336). Kind of experiment: Inhibition of PI3Kalpha Efficacy assay. How it is done: (§1) The ADP-Glo™ kinase assay was used to assess the inhibition of PI3Kα with our compounds. The utilized proteins and assay reagents were obtained from the ADP-Glo™ Kinase Assay Kit (Promega). Initially, a 2 mM stock solution of the test compound (dissolved in DMSO) was serially diluted in five-fold concentrations using DMSO to obtain eight working solutions 1 (200′). Subsequently, each of the eight working solutions 1 was further diluted in a 20-fold gradient by adding 5 μL into 95 μL of ddH2O, resulting in eight working solutions 2 (10×). In a 384-well white flat-bottom plate, 2 μL of 2.5×PI3Kα kinase solution and 1 μL of working solution 2 (10×) were added to each well and mixed, followed by a 15-minute incubation at room temperature (RT). Subsequently, 2 μL of 2.5×PI and ATP solution mixture were added to each well, mixed, and incubated at RT for 60 minutes. Then, 5 μL of ADP-Glo (containing 10 mM MgCl2) reagent was added to each well, mixed, and incubated at RT for 40 minutes.Finally, 10 μL of the Kinase Detection Reagent was added to each well, mixed, and incubated at RT for 40 minutes. Luminescence values were recorded using a multi-mode microplate reader with luminescence channel settings, and the inhibitory rate was calculated using the following formula:%Inhibitionrate=[(Negative-testcompound)/(Negative-Blank)]*100Data were analyzed using GraphPad Prism with log(inhibitor) vs. response—Variable Slope(four parameters) fitting calculations for IC5 values.

Experiment [3] concerns the target T1, Phosphatidylinositol 4,5-bisphosphate 3-kinase catalytic subunit delta isoform (Homo sapiens, UniProt O00329).
T1 sequence (O00329 whole entry): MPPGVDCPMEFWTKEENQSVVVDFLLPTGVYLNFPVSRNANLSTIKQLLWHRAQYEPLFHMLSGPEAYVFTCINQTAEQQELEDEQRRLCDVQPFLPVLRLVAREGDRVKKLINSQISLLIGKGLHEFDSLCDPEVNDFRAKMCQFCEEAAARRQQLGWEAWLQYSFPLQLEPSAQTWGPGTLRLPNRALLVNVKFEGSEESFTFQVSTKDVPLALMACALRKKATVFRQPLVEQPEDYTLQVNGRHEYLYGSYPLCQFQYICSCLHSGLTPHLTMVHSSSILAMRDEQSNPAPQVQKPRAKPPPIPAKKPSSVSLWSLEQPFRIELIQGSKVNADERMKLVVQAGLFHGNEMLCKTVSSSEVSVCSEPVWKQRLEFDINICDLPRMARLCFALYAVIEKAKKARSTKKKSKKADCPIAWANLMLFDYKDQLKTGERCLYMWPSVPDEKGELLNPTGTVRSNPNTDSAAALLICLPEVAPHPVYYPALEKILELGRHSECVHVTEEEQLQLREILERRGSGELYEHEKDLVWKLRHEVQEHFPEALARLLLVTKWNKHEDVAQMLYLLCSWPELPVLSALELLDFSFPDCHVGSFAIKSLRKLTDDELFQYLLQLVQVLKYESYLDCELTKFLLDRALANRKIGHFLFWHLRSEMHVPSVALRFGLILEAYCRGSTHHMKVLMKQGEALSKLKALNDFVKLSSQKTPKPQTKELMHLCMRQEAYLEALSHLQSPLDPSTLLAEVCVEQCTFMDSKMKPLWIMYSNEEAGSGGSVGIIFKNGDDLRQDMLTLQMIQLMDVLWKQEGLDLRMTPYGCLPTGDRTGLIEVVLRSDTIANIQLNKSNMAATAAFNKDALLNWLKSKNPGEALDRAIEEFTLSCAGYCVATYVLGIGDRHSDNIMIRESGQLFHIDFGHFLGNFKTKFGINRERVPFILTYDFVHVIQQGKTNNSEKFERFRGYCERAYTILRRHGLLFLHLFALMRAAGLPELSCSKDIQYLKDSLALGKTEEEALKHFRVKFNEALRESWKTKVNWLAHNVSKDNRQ
As to the kind of experiment: Inhibition of PI3Kdelta Efficacy Assay. How it is done: as §1, with “PI3Kδ” for “PI3Kα”, “(200×)” for “(200′).”, “2.5×PI3Kδ” for “2.5×PI3Kα”, “minutes. Finally,” for “minutes.Finally,”, “IC50” for “IC5”

For six compounds, IC50 results are on record in BindingDB's records for patent US20250145589 (Sichuan Huiyu Pharmaceutical, 2025).

pIC50: −log10 of the molar value.

Sequence of Son of sevenless homolog 1/GTPase KRas [G12C] (P01116 whole entry G12C): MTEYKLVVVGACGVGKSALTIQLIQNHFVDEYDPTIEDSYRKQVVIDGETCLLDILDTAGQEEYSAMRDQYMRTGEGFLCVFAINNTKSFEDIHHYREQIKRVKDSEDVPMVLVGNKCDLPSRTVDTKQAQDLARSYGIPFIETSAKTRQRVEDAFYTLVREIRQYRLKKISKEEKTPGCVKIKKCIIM
Sequence of Son of sevenless homolog 1/GTPase KRas [G12C] (Q07889 whole entry, further chain): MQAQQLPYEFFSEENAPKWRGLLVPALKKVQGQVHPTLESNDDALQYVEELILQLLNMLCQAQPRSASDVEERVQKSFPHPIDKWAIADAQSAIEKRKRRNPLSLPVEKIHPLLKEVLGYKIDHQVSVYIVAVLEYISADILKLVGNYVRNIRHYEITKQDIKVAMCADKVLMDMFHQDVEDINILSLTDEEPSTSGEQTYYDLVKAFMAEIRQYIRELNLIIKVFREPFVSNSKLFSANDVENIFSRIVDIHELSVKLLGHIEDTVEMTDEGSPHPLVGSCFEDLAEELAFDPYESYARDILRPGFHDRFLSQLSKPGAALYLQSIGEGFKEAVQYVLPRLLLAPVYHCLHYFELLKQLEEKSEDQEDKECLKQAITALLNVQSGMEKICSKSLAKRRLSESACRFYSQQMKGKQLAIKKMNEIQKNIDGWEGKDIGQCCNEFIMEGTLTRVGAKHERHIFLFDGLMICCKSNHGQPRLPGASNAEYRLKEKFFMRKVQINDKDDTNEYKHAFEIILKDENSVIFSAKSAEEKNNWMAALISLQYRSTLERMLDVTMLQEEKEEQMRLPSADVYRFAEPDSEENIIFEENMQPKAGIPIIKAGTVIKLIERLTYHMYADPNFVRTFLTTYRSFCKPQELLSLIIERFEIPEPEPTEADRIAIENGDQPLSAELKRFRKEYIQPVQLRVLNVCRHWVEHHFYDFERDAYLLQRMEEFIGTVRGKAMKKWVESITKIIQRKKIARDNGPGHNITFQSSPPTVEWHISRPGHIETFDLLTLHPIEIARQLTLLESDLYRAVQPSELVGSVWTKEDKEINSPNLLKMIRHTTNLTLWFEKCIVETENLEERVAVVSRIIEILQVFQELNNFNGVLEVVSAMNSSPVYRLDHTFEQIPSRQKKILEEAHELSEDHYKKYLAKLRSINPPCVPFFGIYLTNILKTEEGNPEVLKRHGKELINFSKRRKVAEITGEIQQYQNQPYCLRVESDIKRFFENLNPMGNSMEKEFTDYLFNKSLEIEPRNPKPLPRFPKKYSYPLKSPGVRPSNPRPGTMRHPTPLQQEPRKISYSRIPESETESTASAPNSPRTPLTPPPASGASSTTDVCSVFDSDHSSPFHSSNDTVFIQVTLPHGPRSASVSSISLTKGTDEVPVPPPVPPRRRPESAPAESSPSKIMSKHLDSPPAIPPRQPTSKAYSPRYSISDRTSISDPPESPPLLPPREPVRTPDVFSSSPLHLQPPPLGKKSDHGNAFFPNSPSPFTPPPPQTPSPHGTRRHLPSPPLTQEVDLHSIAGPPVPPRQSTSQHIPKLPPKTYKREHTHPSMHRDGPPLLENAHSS
Sequence of Phosphatidylinositol 4,5-bisphosphate 3-kinase catalytic subunit alpha isoform (P42336 whole entry, canonical isoform): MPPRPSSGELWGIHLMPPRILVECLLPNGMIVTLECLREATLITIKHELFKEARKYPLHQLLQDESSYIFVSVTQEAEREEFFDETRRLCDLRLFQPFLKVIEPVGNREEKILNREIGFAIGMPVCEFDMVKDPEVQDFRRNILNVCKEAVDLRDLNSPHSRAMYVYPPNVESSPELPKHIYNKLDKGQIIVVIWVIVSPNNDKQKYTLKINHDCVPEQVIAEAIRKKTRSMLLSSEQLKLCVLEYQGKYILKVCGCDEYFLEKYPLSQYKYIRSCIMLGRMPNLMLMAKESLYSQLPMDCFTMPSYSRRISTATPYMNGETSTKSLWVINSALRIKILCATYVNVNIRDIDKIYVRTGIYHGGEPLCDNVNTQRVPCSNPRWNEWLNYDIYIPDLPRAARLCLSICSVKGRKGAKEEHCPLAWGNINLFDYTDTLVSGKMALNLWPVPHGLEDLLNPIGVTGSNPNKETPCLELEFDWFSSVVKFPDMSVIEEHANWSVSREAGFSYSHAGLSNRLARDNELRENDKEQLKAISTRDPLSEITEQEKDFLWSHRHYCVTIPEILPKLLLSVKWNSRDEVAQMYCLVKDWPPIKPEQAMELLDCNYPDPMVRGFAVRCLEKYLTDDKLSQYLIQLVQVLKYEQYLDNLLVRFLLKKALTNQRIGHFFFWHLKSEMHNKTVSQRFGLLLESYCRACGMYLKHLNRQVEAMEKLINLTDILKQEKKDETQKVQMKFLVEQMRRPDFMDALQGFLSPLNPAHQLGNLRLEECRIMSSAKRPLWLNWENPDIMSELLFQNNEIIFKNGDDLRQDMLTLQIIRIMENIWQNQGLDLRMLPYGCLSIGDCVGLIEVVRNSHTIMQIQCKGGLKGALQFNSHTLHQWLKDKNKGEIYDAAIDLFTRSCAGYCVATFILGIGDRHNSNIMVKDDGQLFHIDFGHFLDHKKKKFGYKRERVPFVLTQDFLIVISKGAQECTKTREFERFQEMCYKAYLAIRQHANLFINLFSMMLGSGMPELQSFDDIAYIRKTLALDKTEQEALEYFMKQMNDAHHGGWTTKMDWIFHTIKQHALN

As for `COc1ncc(-c2ccc3ncnc(N4CCN(C(=O)/C=C/C(C)=O)C[C@@H]4C)c3c2)cc1NS(=O)(=O)c1ccc(F)cc1F` [US20250145589, Example 8], the pIC50 was 6.65 in experiment [1], 9.47 in experiment [2] and 7.75 in experiment [3].

Consider `COc1ncc(-c2ccc3ncnc(N4CCC5(CN(C(=O)/C=C/C(C)=O)C5)C4)c3c2)cc1NS(=O)(=O)c1ccc(F)cc1F` [US20250145589, Example 13], for which the pIC50 was 7.01 in experiment [1], 7.95 in experiment [2] and 7.07 in experiment [3].

In turn, `C=C(F)C(=O)N1CCN(c2ncnc3ccc(-c4cnc(OC)c(N(C)S(=O)(=O)c5ccc(F)cc5F)c4)cc23)CC1` [US20250145589, Example 79] gave a pIC50 in experiment [3] of 6.04.

With `C=CS(=O)(=O)N1CCN(c2ncnc3ccc(-c4cnc(OC)c(NS(=O)(=O)c5ccc(F)cc5F)c4)cc23)CC1` [US20250145589, Example 207], the pIC50 in experiment [2] is 8.49.

Regarding `COc1ncc(-c2ccc3ncnc(N4CCN(C(=O)/C=C/C(C)=O)CC4)c3n2)cc1NS(=O)(=O)c1cnccc1C` [US20250145589, Example 223], the pIC50 in experiment [1] is 6.68; in experiment [2], 8.85.

Turning to `COc1ncc(-c2ccc3ncnc(N4CCN(C(=O)/C=C/C(C)=O)CC4)c3c2)cc1SS(=O)(=O)c1ccc(F)cc1F` [US20250145589, Example 246], the pIC50 in experiment [1] was 6.80; in experiment [2], 8.65; in experiment [3], 7.86.

Broadly, the pIC50 is the negative decadic logarithm of the IC50, by convention in mol/L. High values mean a small IC50, low ones a large IC50.
